From patent EP1781807B1, “FLUORESCENCE-BASED KINETIC DETERMINATION OF TRANSGLUTAMINASE ACTIVITY” (N-Zyme BioTec GmbH, priority 2004, dated 2006)
Where a SMILES comes first, the peptide text is derived from it. [ ]: non-standard residue; d: D form. The star is where a group is joined. X1 = O=[N+]([O-])c1ccc(NCCCCCN*)c([N+](=O)[O-])c1; 2Abz = Nc1ccccc1C(=O)O; Ahx = NCCCCCC(=O)O

Assays:
Type in all cases: biochemical
FXIII = target: T1, FXIII (Homo sapiens, UniProt P00488); assay: Kinetic measurement of FXIII in plasma (Beispiel 1); conditions: in Gegenwart von 5 mM Glycinethylester, otherwise identical conditions; 100 µl Citratplasma, 20 NIH Units Thrombin, 37°C, Exc. 310 nm, Em. 427 nm
T1 construct: Kinetische Messung von FXIII in Plasmen; from tissue; host or cells: plasma
T1 sequence (P00488 1-732): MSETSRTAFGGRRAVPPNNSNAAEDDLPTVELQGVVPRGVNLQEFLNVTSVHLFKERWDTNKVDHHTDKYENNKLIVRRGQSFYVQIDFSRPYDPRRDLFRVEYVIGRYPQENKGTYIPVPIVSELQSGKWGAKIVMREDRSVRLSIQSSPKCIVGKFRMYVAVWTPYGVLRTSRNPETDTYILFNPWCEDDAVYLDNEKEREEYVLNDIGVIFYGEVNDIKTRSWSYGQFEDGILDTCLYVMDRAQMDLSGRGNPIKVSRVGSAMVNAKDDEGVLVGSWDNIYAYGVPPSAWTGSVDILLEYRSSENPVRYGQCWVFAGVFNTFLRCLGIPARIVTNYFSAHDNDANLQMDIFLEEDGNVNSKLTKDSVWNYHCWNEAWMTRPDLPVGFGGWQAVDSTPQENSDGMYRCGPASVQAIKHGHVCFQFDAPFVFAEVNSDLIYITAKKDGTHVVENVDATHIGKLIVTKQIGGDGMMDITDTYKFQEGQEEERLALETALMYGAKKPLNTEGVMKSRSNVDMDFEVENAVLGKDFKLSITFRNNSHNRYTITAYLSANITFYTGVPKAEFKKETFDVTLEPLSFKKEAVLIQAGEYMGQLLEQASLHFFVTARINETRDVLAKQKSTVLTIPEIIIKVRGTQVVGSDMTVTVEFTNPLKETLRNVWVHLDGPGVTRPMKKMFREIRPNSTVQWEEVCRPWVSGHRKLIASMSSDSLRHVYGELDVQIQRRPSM
Text: Kinetische Messung von FXIII in Plasmen
Substratpeptid: Abz-Asn-Glu(CAD-DNP)-Glu-Gln-Val-Ser-Pro-Leu-Thr-Leu-Leu-Lys (2)
Die Substratsequenz Asn-Gln-Glu-Gln-Val-Ser-Pro-Leu-Thr-Leu-Leu-Lys ist einem natürlichen Substrat des FXIII entnommen und wurde bereits zur kinetischen Messungen von FXIII in der Literatur beschrieben (Kärpäti L. et al., Clin Chem., 46:12, 2000, 1946-55). Durch die erfindungsgemäße Modifikation dieses Peptides kann eine kinetische Messung in Plasmen durchgeführt werden (unterer Graph in Fig. 3). Die Messung wurde in diesem speziellen Fall wie folgt durchgeführt.

[1] = target: T2, gereinigte rekombinante humane Transglutaminase 2 (Homo sapiens, UniProt P21980); assay: Selectivity of measurement of different transglutaminases, 2. Ansatz (Beispiel 4); conditions: substrate 50 µM, rhHis6TG2 0,25 µM, 6 % DMSO, Exc. 310 nm, Em. 427 nm, 20 min
T2 construct: His6
T2 sequence (P21980 1-687): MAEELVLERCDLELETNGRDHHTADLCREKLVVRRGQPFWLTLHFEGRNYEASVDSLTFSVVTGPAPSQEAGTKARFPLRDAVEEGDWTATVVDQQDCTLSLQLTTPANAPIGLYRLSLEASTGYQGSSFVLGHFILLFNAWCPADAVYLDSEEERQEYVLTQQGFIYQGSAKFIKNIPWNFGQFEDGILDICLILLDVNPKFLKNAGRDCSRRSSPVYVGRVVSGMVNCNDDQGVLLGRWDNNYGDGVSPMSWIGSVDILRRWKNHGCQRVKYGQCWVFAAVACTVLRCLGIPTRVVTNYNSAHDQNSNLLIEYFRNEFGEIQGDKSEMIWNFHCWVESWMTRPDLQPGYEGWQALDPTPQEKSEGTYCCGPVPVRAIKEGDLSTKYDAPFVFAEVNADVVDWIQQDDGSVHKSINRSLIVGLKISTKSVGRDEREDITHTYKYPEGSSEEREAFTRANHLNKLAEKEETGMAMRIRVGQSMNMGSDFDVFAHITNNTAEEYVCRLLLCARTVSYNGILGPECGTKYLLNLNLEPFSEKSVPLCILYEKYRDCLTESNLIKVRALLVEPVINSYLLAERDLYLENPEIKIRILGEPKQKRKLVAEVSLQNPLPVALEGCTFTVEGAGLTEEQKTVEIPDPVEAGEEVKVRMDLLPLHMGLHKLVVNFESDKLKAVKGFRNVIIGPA
Text: (§1) Selektivität der Messungen verschiedener Transglutaminasen
2. Ansatz: Abz-Asn-Glu(CAD-DNP)-Glu-Gln-Val-Ser-Pro-Leu-Thr-Leu-Leu-Lys (2), Transglutaminase: gereinigte rekombinante humane Transglutaminase 2

Faktor XIII [2] = target: T3, Faktor XIII (Homo sapiens, UniProt P00488); assay: Comparison of fluorescence-labelled transglutaminase peptide substrates, kinetic measurement (Beispiel 5); conditions: 900 µl thrombin-containing 50 µM peptide solution + 100 µl Humanplasma
T3 construct: 100 µl humanem Plasma (durch Thrombin aktiviert); from tissue; host or cells: human plasma
T3 sequence (P00488 39-732): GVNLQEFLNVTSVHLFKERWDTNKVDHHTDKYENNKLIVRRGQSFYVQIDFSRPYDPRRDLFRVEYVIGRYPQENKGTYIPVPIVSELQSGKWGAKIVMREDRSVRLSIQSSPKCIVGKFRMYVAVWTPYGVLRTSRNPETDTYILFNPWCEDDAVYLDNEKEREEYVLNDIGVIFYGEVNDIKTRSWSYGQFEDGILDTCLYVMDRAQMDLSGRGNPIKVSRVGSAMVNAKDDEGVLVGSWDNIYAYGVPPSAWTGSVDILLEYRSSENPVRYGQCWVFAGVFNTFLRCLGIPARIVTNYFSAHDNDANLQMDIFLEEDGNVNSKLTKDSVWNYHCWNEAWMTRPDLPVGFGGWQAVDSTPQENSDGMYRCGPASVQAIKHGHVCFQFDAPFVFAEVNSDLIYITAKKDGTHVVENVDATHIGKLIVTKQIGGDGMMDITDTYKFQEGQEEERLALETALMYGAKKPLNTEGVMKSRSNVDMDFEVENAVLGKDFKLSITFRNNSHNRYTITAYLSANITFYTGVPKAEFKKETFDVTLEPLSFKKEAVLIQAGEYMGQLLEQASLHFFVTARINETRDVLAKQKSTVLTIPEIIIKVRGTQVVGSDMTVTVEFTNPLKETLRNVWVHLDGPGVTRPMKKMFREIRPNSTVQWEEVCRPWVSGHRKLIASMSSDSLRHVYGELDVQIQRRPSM
Protocol: Vergleich von Transglutaminasepeptidsubstraten
Für den Vergleich verschiedener mit fluoreszierenden Gruppen markierter Transglutaminasepeptidsubstrate wurden kinetische Messungen unter identischen Bedingungen durchgeführt. Dazu wurden zu 900 µl einer thrombinhaltigen 50 µM Lösung des Peptids 100 µl Humanplasma zugesetzt. Diese Bedingungen entsprechen denen, die bei heutzutage üblichen Faktor XIII - Messungen (wie bei dem Marktführer: Berichrom) zum Einsatz kommen. […] Auch die Verwendung von Abz als Fluorophor (Abz-Ahx-Glu(CAD-DNP)-Gln-Ile-Val, (Parameswaran et al.,
Um die Substrateigenschaften gegenüber den Substraten des Standes der Technik zu verbessern und somit klinisch relevante Messungen zu ermöglichen, wurde ausgehend von Verbindung 1 durch routinemäßiges Experimentieren das Peptidrückgrat so verändert, dass ein Substrat entstand, das durch FXIII schneller umgesetzt werden sollte (DNS-Ahx-Glu(CAD-DNP)-Glu-Gln-Val-Ser-Pro-Leu-Thr-Leu-Leu-Lys, 2).
Gegenüber dem Peptid, das in der Literatur (Kärpäti et al.) beschrieben wird, ist die Verbindung 2 um eine Aminosäure am N-Terminus verkürzt. Dahinter stand die Absicht, die im Stand der Technik bekannte und oben beschriebene fluorogene Teilstruktur zu erhalten. Es ist aber bekannt, dass gerade die Aminsäuren, die der Bindungsstelle von Enzymen direkt benachbart sind, besonders großen Einfluss auf die Substrateigenschaften von Peptiden, bzw. Proteinen haben. Deshalb wurde in einer weiteren Modifikation von Verbindung 1 die Verbindung 3 hergestellt. (DNS-Ahx-Asn-Glu(CAD-DNP)-Glu-Gln-Val-Ser-Pro-Leu-Thr-Leu-Leu-Lys, 3).
Beispielhaft wird dies im Vergleich in Fig. 6 anhand der Reaktion von 100 µl humanem Plasma (durch Thrombin aktiviert) und einer 50 µM Lösung des Peptides Abz-Asn-Glu(CAD-DNP)-Glu-Gln-Val-Ser-Pro-Leu-Thr-Leu-Leu-Lys (Verbindung 2)) gezeigt. Dem Vergleich der Strukturen und der Fluoreszenzdaten ist zu entnehmen, dass diese Wirkung auch für andere Transglutaminasen und andere Peptide Gültigkeit hat.

Faktor XIII [3] = target: T4, Faktor XIII (Homo sapiens, UniProt P00488); assay: Selectivity of measurement of different transglutaminases, 1. Ansatz (Beispiel 4); conditions: substrate 50 µM, 100 µl Citratplasma, 6 % DMSO, Exc. 310 nm, Em. 427 nm, 20 min
T4 construct: 100 µl Citratplasma; from tissue; host or cells: citrate plasma
T4 sequence (P00488 1-732): T1 sequence (P00488 1-732)
Text: as §1
1. Ansatz: Substratpeptid: Abz-Ala-Pro-Glu(CAD-DNP)-Gln-Glu-Ala (3), Transglutaminase: Faktor XIII

| Molecule | Steigerung der Fluoreszenz (Faktor XIII [2]) | other results |
| --- | --- | --- |
| 2-Aminobenzoyl-L-asparaainyl-N^δ-[N-(2,4-dinitrophenyl)1-5-aminopentyl]-L-glutaminyl-L-glutamyl-L-glutaminyl-L-valinyl-L-serinyl-L-prolinyl-L-leucinyl-L-threoninyl-L-leucinyl-L-leucin-L-lysin [Verbindung 2] | wesentliche Verbesserung der Fluoreszenzsteigerung | Signal (Fluoreszenzänderung) (FXIII): Signal zusätzlich verstärkt; Anstieg der Fluoreszenz [1]: Ergebnis: kein Anstieg der Fluoreszenz |
| CC[C@H](C)[C@H](NC(=O)[C@H](CCC(N)=O)NC(=O)[C@H](CCC(=O)NCCCCCNc1ccc([N+](=O)[O-])cc1[N+](=O)[O-])NC(=O)CCCCCNC(=O)c1ccccc1N)C(=O)N[C@H](C(=O)O)C(C)C [Abz-Ahx-Glu(CAD-DNP)-Gln-Ile-Val] (H-[2Abz][Ahx]E(X1)QIV-OH) | keine messbare Steigerung der Fluoreszenz |  |
| C[C@H](NC(=O)[C@H](CCC(=O)O)NC(=O)[C@H](CCC(N)=O)NC(=O)[C@H](CCC(=O)NCCCCCNc1ccc([N+](=O)[O-])cc1[N+](=O)[O-])NC(=O)[C@@H]1CCCN1C(=O)[C@H](C)NC(=O)c1ccccc1N)C(=O)O [Verbindung 3] (H-[2Abz]APE(X1)QEA-OH) |  | Anstieg der Fluoreszenz (Faktor XIII [3]): Ergebnis: kein Anstieg der Fluoreszenz |
| DNS-Ahx-Asn-Glu(CAD-DNP)-Glu-Gln-Val-Ser-Pro-Leu-Thr-Leu-Leu-Lys | nicht zu dem gewünschten Ergebnis |  |
| DNS-Ahx-Gln(CAD-DNP)-Glu-lle-Val-OH [Verbindung 1] | keine messbare Steigerung der Fluoreszenz |  |
| DNS-Ahx-Glu(CAD-DNP)-Glu-Gln-Val-Ser-Pro-Leu-Thr-Leu-Leu-Lys | nicht zu einer Verbesserung |  |
